Measurements as given in patent US20110206711A1, “METHOD FOR INDUCING CYTOTOXIC T-CELLS, CYTOTOXIC T-CELL INDUCER, AND PHARMACEUTICAL COMPOSITION AND VACCINE EMPLOYING SAME” (priority 2006, published 2011).
Entries after “also recorded” stand apart in the source; their conditions may differ. Ends that are not written are not given here.

test system: HCV genome-expressing RzM6 cells; assay: Cytolysis assay against HCV genome-expressing cells; format: cell-based, human; details: RzM6 cells vs HepG2 control; E/T ratio 10; 3 hours; FIG. 4
From the text: RzM6 cells were formed by transfecting HepG2, which is a human liver cell strain, with an HCV gene that had been modified so as to be able to conditionally induce expression of an HCV1b full genome (AY045702) in the presence of Cre (Activation of the CK1-CDK-Rb-E2F pathway in full genome hepatitis C virus-expressing cells. Tsukiyama-Kohara et al., J. Biol. Chem. 279, 14531-14541, 2004, RzM6 being supplied by Dr. Michinori Obara, Tokyo Metropolitan Institute of Medical Science).
In the HCV expression method, since the same RzM6 cells are doubly transfected with the Cre gene inserted in a conditional expression cassette arranged downstream of a Tamoxifen-inducible promoter, by adding tamoxifen, expression of Cre is induced, and as a result expression of the HCV gene can be induced. The RzM6 cells for which expression of the HCV gene was induced were labeled with ^51Cr by the same method as for the C1R-A24 cells, thus serving as target cells.
The cytotoxic T-cells prepared above and RzM6 target cells or HepG2 cells with no HCV introduced as a control were mixed at an E/T ratio of 10 and allowed to stand at 37° C. for 3 hours, and the radioactivity of ^51Cr released into the culture supernatant was measured.

Sequence | cytolytic activity specific to HCV-expressing cells by the cytotoxic T-cells
ALYGVYPLL [SEQ ID NO: 5] | a cytolytic activity specific to HCV-expressing cells by the cytotoxic T-cells was exhibited
AYSQQTRGL [SEQ ID NO: 8] | a cytolytic activity specific to HCV-expressing cells by the cytotoxic T-cells was exhibited
ILMTHFFSI [SEQ ID NO: 13] | a cytolytic activity specific to HCV-expressing cells by the cytotoxic T-cells was exhibited
ILPCSFTTL [SEQ ID NO: 4] | a cytolytic activity specific to HCV-expressing cells by the cytotoxic T-cells was exhibited
ITYSTYCKF [SEQ ID NO: 9] | a cytolytic activity specific to HCV-expressing cells by the cytotoxic T-cells was exhibited
RYAPACKPL [SEQ ID NO: 10] | a cytolytic activity specific to HCV-expressing cells by the cytotoxic T-cells was exhibited
SYTWTGALI [SEQ ID NO: 12] | a cytolytic activity specific to HCV-expressing cells by the cytotoxic T-cells was exhibited
WHYPCTVNF [SEQ ID NO: 2] | a cytolytic activity specific to HCV-expressing cells by the cytotoxic T-cells was exhibited

molecular target: HLA-A24 molecule (product of the HLA-A*2402 gene) (Homo sapiens, UniProt P04439, D101N/D140Y/D185E/E176V/E190D/F33S/G103R/G107R/I119L/I121M/I306V/K335N/L105A/L180Q/L300P/N151K/N90K/Q86E/Q94H/R106L/R138H/R89G/T104I/T345S/V100E/W191G/Y123F); assay: Experiment of binding peptide to HLA-A24 molecule (C1R-A24 cells, flow cytometry); details: not given

Sequence | binding in HLA molecule binding experiment
FWAKMMYNF [SEQ ID NO: 14] | high binding

test system: peptide-loaded C1R-A24 cells and T2-A24 cells; assay: Cytotoxic T-cell induction experiment (51Cr release, human PBMCs); format: cell-based; details: peptide 1 μM; blood samples from 8 (or 7) people; E/T ratio 10 to 20; FIG. 2 and FIG. 3
Experimental: The following experiment was carried out using a human blood sample.
Blood was sampled from a hepatitis C patient or a healthy individual from whom informed consent had been obtained in advance.
To blood cells (Peripheral blood mononuclear cells: PBMCs) sown on 96 well plates peptides of SEQ ID NOS: 1 to 14 were added weekly for 5 weeks so as to give final concentrations of 1 μM, and cytotoxic T-cells were activated in media to which was added 10% FCS and 5 ng/mL of IL-2, thus giving T-cell samples.
Cells were labeled with ^51Cr by adding the sodium salt of ^51Cr (sodium chromate) to C1R-A24 cells and T2-A24 cells (human B/T cultured cell strain having no TAP peptide transporter and expressing the HLA-A*2402 gene: supplied by Dr. Tsuboi, Faculty of Medicine, Osaka University) at 37° C. or 26° C. for 1 hour. Peptides of SEQ ID NOS: 1 to 14 were added thereto so as to make final concentrations of 1 μM, thus forming target cells having each peptide binding to the surface of the cells.
After the cytotoxic T-cells and the target cells prepared above were mixed at an E/T ratio (effector to target) of 10 to 20 and allowed to stand at 37° C. for 3.5 hours, the radioactivity of ^51Cr released in the culture supernatant was measured.

Sequence | capability of inducing cytotoxic T-cells
FWAKMMYNF [SEQ ID NO: 14] | did not show a capability of inducing cytotoxic T-cells; also recorded: none of the blood samples showed a capability of inducing cytotoxic T-cells
